# Laboratory results reported in US20100227876A1 (priority 2009, published 2010).
# What was measured:
# human = conditions: cited from earlier work
# rats = conditions: rat, in vivo; cited from earlier work
# male Sprague-Dawley rats = assay: animal or person; format: in vivo, rat; conditions: sc
smiles,measurement,setting,value
Oc1ccc2c(c1)[C@@]13CCCC[C@@]1(O)[C@@H](C2)N(CC1CCC1)CC3 [butorphanol],effective human dose,human,2 mg
"COC(=O)/C=C/C(=O)N[C@@H]1CC[C@@]2(O)[C@H]3Cc4ccc(O)c5c4[C@@]2(CCN3CC2CC2)[C@H]1O5 [β-FNA, beta-funaltrexamine]","M.P.E. (maximal percent effect, antinociception)",rats,1.0%
"Oc1ccc2c3c1O[C@H]1c4[nH]c5c(c4C[C@@]4(O)[C@@H](C2)N(CC2CC2)CC[C@]314)C[C@@]1(O)[C@H]2Cc3ccc(O)c4c3[C@@]1(CCN2CC1CC1)[C@H]5O4 [n-BNI, nor-binaltorphimine]","M.P.E. (maximal percent effect, antinociception)",rats,1.0%
CN1CC[C@]23c4c5ccc(O)c4O[C@H]2C(=O)CC[C@@]3(O)[C@H]1C5 [oxymorphone],ED50,"male Sprague-Dawley rats; Rattus norvegicus, read-out: ED50 (M.P.E.=50%)",0.078 mg/kg
same,"peak effect, time post injection","male Sprague-Dawley rats; rat, in vivo",30 min
